Assay [1] relates to PPC1, M12, DU145, and LNCaP orthotopic xenografts. In words: Fluorescein-conjugated REA peptide homing to orthotopic human prostate cancer xenografts. The format is in vivo, mouse. The method, then:
Custom immunization to produce a rabbit antiserum against mouse Prox-1 was performed by Proteintech Inc. New Zealand White rabbits were immunized with a fusion protein of GST-C-terminal fragment of Prox-1 protein. The antibody was affinity purified on the fusion protein and absorbed with GST. […] Antibodies against the lymphatic markers anti-LYVE-1 (Laakkonen et al., 2002) and anti-podoplanin (kindly provided by T. Petrova and K. Alitalo), rat monoclonal anti-mouse CD31 (BD Pharmingen), rat anti-mouse MECA-32 (Pharmingen), rabbit polyclonal anti-T7 phage, and rat anti-mouse VEGFR3 were used for immunohistochemical staining of frozen tissue sections as described (Joyce et al., 2003; Laakkonen et al., 2002). The corresponding secondary antibodies were added and incubated for 1 hr at room temperature: AlexaFluor-488 goat anti-rat or rabbit IgG (1:1000; Molecular Probes, Eugene, Oreg.), AlexaFluor-594 goat anti-rat or rabbit IgG (1:1000, Molecular Probes), AlexaFluor-594 donkey anti-mouse or goat IgG (1:1000, Molecular Probes), and AlexaFluor-488 donkey anti-mouse or goat IgG (1:1000; Molecular Probes), respectively. The slides were washed three times with PBS and mounted in Vectashield Mounting Medium with DAPI (Vector Laboratories, Burlingame, Calif.). […]
On the technique in general: In xenograft studies the graft and the host belong to different species.

Assay [2] deals with K14-HPV16/E2 cervical lesions. In words: Distribution of fluorescent peptides in K14-HPV16/E2 mice with cervical lesions. To be noted: labeled peptide i.v. The format is in vivo, mouse. The protocol: The frozen sections were prepared for immunohistological analysis.

Ends that are not written are not given here.

Turning to “FITC-REA: fluorescein-labeled REA peptide (CREAGRKAC) (not fully specified (N-terminus); cysteine pairing not given here; also: FITC label, position not given here)”, the “fluorescent peptide in PPC1, M12, DU145, LNCaP orthotopic xenografts” value in assay [1] (fluorescein-conjugated peptide) was “positive”. Moreover, the “co-localization with lymphatic vessels in orthotopic prostate tumor xenografts” value in assay [1] (immunohistochemical analysis) is “co-localized with lymphatic vessels”. Moreover, the “fluorescent peptide in K14-HPV16/E2 cervical lesions/tumors (in words)” value in assay [2] is on record as “homed to a lesser extent”.

Source of the values: patent US8536132B2, “Lymphatic zip codes in tumors and pre-malignant lesions” (Sanford-Burnham Medical Research Institute, priority 2006, dated 2013).
